In series [1] the test system is KB tumor xenografts (FR+). The series can be described thus: Ex vivo biodistribution in nude mice bearing KB tumor xenografts. The note with it: 120 min p.i., ± SEM.
Series [2] deals with FR (folate receptor) on KB cells (Homo sapiens, UniProt P15328). Put plainly: Relative binding affinity: inhibition of 3H-folate binding to cultured KB cells. The note with it: read-out: mean IC50 (relative binding affinity, block of 3H-folic acid binding), 10 nM 3H-folate, 1 h, 37 °C.

Results on two compounds are retold here after paper PMC5343510 (Molecular pharmaceutics, 2016).

Sequence of FR (folate receptor) on KB cells (P15328 25-257): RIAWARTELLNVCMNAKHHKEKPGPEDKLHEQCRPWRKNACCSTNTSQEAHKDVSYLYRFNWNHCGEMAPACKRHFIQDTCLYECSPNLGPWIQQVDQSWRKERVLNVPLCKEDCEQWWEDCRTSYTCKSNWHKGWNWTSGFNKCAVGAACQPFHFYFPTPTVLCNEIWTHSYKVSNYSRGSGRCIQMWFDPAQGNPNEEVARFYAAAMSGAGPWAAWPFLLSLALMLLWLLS

In the case of `[NH-][C@@H](CNC(=O)CC[C@@H](NC(=O)c1ccc(NCc2cnc3nc(N)[nH]c(=O)c3n2)cc1)C(=O)O)C(=O)[N-][C@@H](CC(=O)O)C(=O)[N-][C@@H](C[S-])C(=O)O.[O]=[Tc+4]` [^99mTc-EC20], in series [1] (Control), the “Biodistribution: Blood” value was 0.3 ± 0.01 %ID/g, the “Biodistribution: Heart” value is 1.9 ± 0.1 %ID/g, the “Biodistribution: KB Tumor” value is on record as 10.9 ± 0.6 %ID/g and the “Biodistribution: Kidney” value amounted to 113.0 ± 3.6 %ID/g. In series [1] (Control), the “Biodistribution: Liver” value stood at 4.1 ± 0.3 %ID/g, the “Biodistribution: Lung” value is 2.1 ± 0.1 %ID/g, the “Biodistribution: Muscle” value turned out to be 1.2 ± 0.04 %ID/g and the “Biodistribution: Plasma” value came to 0.5 ± 0.03 %ID/g. In addition, in series [1] (Control), the “Biodistribution: Spleen” value is 0.8 ± 0.1 %ID/g, the “KB Tumor/Blood ratio” value worked out at 41.5 ± 2.2, the “KB Tumor/Kidney ratio” value came out at 0.1 ± 0.01 and the “KB Tumor/Liver ratio” value is 3.1 ± 0.3. In series [1] (FA Block (100 μg folic acid)), the “Biodistribution: Blood” value is on record as 0.3 ± 0.1 %ID/g, the “Biodistribution: Heart” value amounted to 0.1 ± 0.02 %ID/g, the “Biodistribution: KB Tumor” value was 0.9 ± 0.1 %ID/g and the “Biodistribution: Kidney” value came out at 6.7 ± 1.6 %ID/g. In series [1] (FA Block (100 μg folic acid)), the “Biodistribution: Liver” value is given as 2.5 ± 0.5 %ID/g, the “Biodistribution: Lung” value was 0.8 ± 0.2 %ID/g, the “Biodistribution: Muscle” value worked out at 0.1 ± 0.02 %ID/g and the “Biodistribution: Plasma” value amounted to 0.5 ± 0.1 %ID/g. In series [1] (FA Block (100 μg folic acid)), the “Biodistribution: Spleen” value turned out to be 0.5 ± 0.2 %ID/g, the “KB Tumor/Blood ratio” value was 2.9 ± 0.4, the “KB Tumor/Kidney ratio” value is 0.1 ± 0.02 and the “KB Tumor/Liver ratio” value amounted to 0.4 ± 0.1.

Regarding `Nc1nc2ncc(CNc3ccc(C(=O)N[C@@H](CCC(=O)NCCOCCOCCNC(=O)CN4CCN(CC(=O)O)CCN(CC(=O)O)CC4)C(=O)O)cc3)nc2c(=O)[nH]1` [folate-NOTA], in series [2], the 50% inhibitory concentration (IC50) – broadly, the midpoint of a concentration-inhibition curve – turned out to be 18.7 nM.
